Data as given in PMC11396129, “Oxindole–benzothiazole hybrids as CDK2 inhibitors and anticancer agents: design, synthesis and biological evaluation” (BMC Chemistry, 2024).

Experiments:
A549/ATCC = assay: NCI 60 panel growth inhibition (SRB), non-small cell lung cancer; assay type: cell-based, human; conditions: 10 μM
Procedure: (§1) Screening of cytotoxic activity against a panel of sixty human tumor cell lines The selected compounds by NCI were evaluated for their anticancer activity in a two- stage process. […] Then, the output from the single dose screen is reported as a mean graph. […] Assay protocol. […] For a typical screening experiment, cells are inoculated into 96 well microtiter plates in 100 µL at plating densities ranging from 5000 to 40,000 cells/well depending on the doubling time of individual cell lines. […] After 24 h, two plates of each cell line are fixed in situ with TCA, to represent a measurement of the cell population for each cell line at the time of drug addition (Tz). The experimental drugs are solubilized in dimethyl sulfoxide at 400-fold the desired final maximum test concentration and stored frozen prior to use. At the time of drug addition, an aliquot of frozen concentrate is thawed and diluted to twice the desired final maximum test concentration with complete medium containing 50 µg/mL gentamicin. Additional four, 10-fold or ½ log serial dilutions are made to provide a total of five drug concentrations plus control. […] For adherent cells, the assay is terminated by the addition of cold TCA. […] The supernatant is discarded, and the plates are washed five times with tap water and air dried. […] Using the seven absorbance measurements [time zero, (Tz), control growth, (C), and test growth in the presence of drug at the five concentration levels (Ti)], the percentage growth is calculated at each of the drug concentrations levels. Percentage growth inhibition is calculated as: [(Ti Tz)/(C–Tz)] x 100 for concentrations for which Ti>/=Tz and [(Ti-Tz)/Tz] x 100 for concentrations for which Ti < Tz. Three dose response parameters are calculated for each experimental agent. […] The drug concentration resulting in total growth inhibition (TGI) is calculated from Ti = Tz. […] Values are calculated for each of these three parameters if the level of activity is reached; however, if the effect is not reached or is exceeded, the value for that parameter is expressed as greater or less than the maximum or minimum concentration tested.

EKVX = assay: as above; assay type: cell-based, human; conditions: 10 μM
Procedure: as §1

HOP-62 = assay: as above; assay type: cell-based, human; conditions: HOP-62, 10 μM
Procedure: as §1

NCI-H226 = assay: as above; assay type: cell-based, human; conditions: NCI-H226, 10 μM
Procedure: as §1

NCI-H23 = assay: as above; assay type: cell-based, human; conditions: NCI-H23, 10 μM
Procedure: as §1

NCI-H322M = assay: as above; assay type: cell-based, human; conditions: 10 μM
Procedure: as §1

NCI-H460 = assay: as above; assay type: cell-based, human; conditions: NCI-H460, 10 μM
Procedure: as §1

NCI-H522 = assay: as above; assay type: cell-based, human; conditions: NCI-H522, 10 μM
Procedure: as §1

HCC-2998 = assay: NCI 60 panel growth inhibition (SRB), colon cancer; assay type: cell-based, human; conditions: HCC-2998, 10 μM
Procedure: as §1

HCT-116 = assay: NCI 60 panel growth inhibition (SRB), colon cancer; assay type: cell-based, human; conditions: HCT-116, 10 μM
Procedure: as §1

KM12 = assay: NCI 60 panel growth inhibition (SRB), colon cancer; assay type: cell-based, human; conditions: KM12, 10 μM
Procedure: as §1

SW-620 = assay: NCI 60 panel growth inhibition (SRB), colon cancer; assay type: cell-based, human; conditions: SW-620, 10 μM
Procedure: as §1

SF-268 = assay: NCI 60 panel growth inhibition (SRB), CNS cancer; assay type: cell-based, human; conditions: SF-268, 10 μM
Procedure: as §1

SF-295 = assay: NCI 60 panel growth inhibition (SRB), CNS cancer; assay type: cell-based, human; conditions: SF-295, 10 μM
Procedure: as §1

SF-539 = assay: NCI 60 panel growth inhibition (SRB), CNS cancer; assay type: cell-based, human; conditions: SF-539, 10 μM
Procedure: as §1

SNB-19 = assay: NCI 60 panel growth inhibition (SRB), CNS cancer; assay type: cell-based, human; conditions: SNB-19, 10 μM
Procedure: as §1

SNB-75 = assay: NCI 60 panel growth inhibition (SRB), CNS cancer; assay type: cell-based, human; conditions: SNB-75, 10 μM
Procedure: as §1

U251 = assay: NCI 60 panel growth inhibition (SRB), CNS cancer; assay type: cell-based, human; conditions: U251, 10 μM
Procedure: as §1

IGROV1 = assay: NCI 60 panel growth inhibition (SRB), ovarian cancer; assay type: cell-based, human; conditions: IGROV1, 10 μM
Procedure: as §1

NCI/ADR-RES = assay: as above; assay type: cell-based, human; conditions: 10 μM
Procedure: as §1

OVCAR-3 = assay: as above; assay type: cell-based, human; conditions: OVCAR-3, 10 μM
Procedure: as §1

OVCAR-4 = assay: as above; assay type: cell-based, human; conditions: OVCAR-4, 10 μM
Procedure: as §1

OVCAR-5 = assay: as above; assay type: cell-based, human; conditions: OVCAR-5, 10 μM
Procedure: as §1

OVCAR-8 = assay: as above; assay type: cell-based, human; conditions: OVCAR-8, 10 μM
Procedure: as §1

SK-OV-3 = assay: as above; assay type: cell-based, human; conditions: SK-OV-3, 10 μM
Procedure: as §1

BT-549 = assay: NCI 60 panel growth inhibition (SRB), breast cancer; assay type: cell-based, human; conditions: BT-549, 10 μM
Procedure: as §1

HS 578T = assay: as above; assay type: cell-based, human; conditions: 10 μM
Procedure: as §1

MCF7 = assay: as above; assay type: cell-based, human; conditions: MCF7, 10 μM
Procedure: as §1

MDA-MB-231/ATCC = assay: as above; assay type: cell-based, human; conditions: 10 μM
Procedure: as §1

MDA-MB-468 = assay: as above; assay type: cell-based, human; conditions: MDA-MB-468, 10 μM
Procedure: as §1

T-47D = assay: as above; assay type: cell-based, human; conditions: 10 μM
Procedure: as §1

HOP-92 = assay: NCI 60 panel growth inhibition (SRB), non-small cell lung cancer; assay type: cell-based, human; conditions: HOP-92, 10 μM
Procedure: as §1

[1] = tested on: NCI 60 cancer cell line panel; assay: NCI 60 panel growth inhibition (SRB), whole panel; assay type: cell-based, human; conditions: mean over NCI 60 panel, 10 μM
Procedure: as §1

Compound | GI% (A549/ATCC) | GI% (EKVX) | GI% (NCI-H226) | GI% (NCI-H23) [%] | GI% (NCI-H322M) | GI% (NCI-H460) | GI% (NCI-H522) [%] | GI% (HCC-2998) | GI% (HCT-116) | GI% (KM12) | GI% (SW-620) | GI% (SF-268) | GI% (SF-295) | GI% (SF-539) | GI% (SNB-19) | GI% (SNB-75) | GI% (U251) | GI% (IGROV1) | GI% (NCI/ADR-RES) [%] | GI% (OVCAR-3) | further results
O=C(COc1ccccc1-c1nc2ccccc2s1)NN=C1C(=O)Nc2ccc(Cl)cc21 [Compound 9e, 2-(2-(Benzo[d]thiazol-2-yl)phenoxy)-N′-(5-chloro-2-oxoindolin-3-ylidene)acetohydrazide] | – (GI% < 5%) | 53.99% | 11.52% | 7.05 | – (GI% < 5%) | – (GI% < 5%) | 11.15 | – (GI% < 5%) | – (GI% < 5%) | – (GI% < 5%) | – (GI% < 5%) | – (GI% < 5%) | – (GI% < 5%) | – (GI% < 5%) | – (GI% < 5%) | – (GI% < 5%) | – (GI% < 5%) | – (GI% < 5%) | 6.89 | – (GI% < 5%) | GI% (HOP-62): – (GI% < 5%); GI% (OVCAR-4): – (GI% < 5%); GI% (OVCAR-5): – (GI% < 5%); GI% (OVCAR-8): – (GI% < 5%); GI% (SK-OV-3): – (GI% < 5%); GI% (BT-549): – (GI% < 5%); GI% (HS 578T): – (GI% < 5%); GI% (MCF7): 15.86%; GI% (MDA-MB-231/ATCC): 15.59%; GI% (MDA-MB-468): 5.76%; GI% (T-47D): – (GI% < 5%); melting point: 265 to 267 °C
COc1ccc(-c2nc3ccccc3s2)cc1OCC(=O)NN=C1C(=O)Nc2ccccc21 [Compound 9m, 2-(5-(Benzo[d]thiazol-2-yl)-2-methoxyphenoxy)-N′-(2-oxoindolin-3-ylidene) acetohydrazide] | – (GI% < 5%) | – (GI% < 5%) | – (GI% < 5%) | 14.06 | – (GI% < 5%) | 17.38% | 7.23 | – (GI% < 5%) | 41.54% | – (GI% < 5%) | 29.93% | – (GI% < 5%) | – (GI% < 5%) | 10.76% | – (GI% < 5%) | – (GI% < 5%) | 13.36% | – (GI% < 5%) | 28.96 | – (GI% < 5%) | GI% (HOP-92): – (GI% < 5%); GI% (OVCAR-4): 16.50%; GI% (OVCAR-5): – (GI% < 5%); GI% (OVCAR-8): 20.84%; GI% (BT-549): – (GI% < 5%); GI% (HS 578T): – (GI% < 5%); GI% (MCF7): 33.97%; GI% (MDA-MB-231/ATCC): 9.78%; GI% (MDA-MB-468): 8.24%; Mean GI% [1]: 6.03%; melting point: 192 to 194 °C
